SMILES strings stand for the structures. Bounds are passed on as bounds.

These results are taken from patent US9353094B2, “Substituted quinoxalines as kinase inhibitors” (BOARD OF REGENTS OF THE UNIVERSITY OF NEBRASKA, priority 2010, dated 2016).

Holding throughout (test): Cell growth inhibition assay (alamar blue)
Assay type in all cases: cell-based
(In general: Resazurin is reduced to fluorescent resorufin, in cell work by metabolically active cells.)

The test system of test [1] is human breast MDA-MB-231 tumor cell line. The settings on record: MDA-MB-231, 20 μM, 72 h. Here is the method:
(§1) The compounds were screened in a growth inhibition assay at 20 μM over a 72 h period in a panel of cancer cell lines (lung-A549; pancreatic-Aspc1; colon-HT29; breast-MDAMB231; prostate-PC3; ovarian-SKOV3 and bone-U2OS) and the results are summarized in Table 2. […] This size effect was also observed with the urea compounds from the secondary amine (6j vs. 6l and 6k vs. 6m).
(§2) Cell Growth Inhibition Assay. Human lung A549, human pancreatic AsPC1, human colorectal HT-29, human breast MDA-MB-231, human prostate PC3, human ovarian SKOV3, and human osteosarcoma U2OS tumor cell lines were cultured in basal media containing 10% FBS and maintained in a 37° C. incubator with 5% CO2. All compounds were screened in 96 well microtiter plate format. In general, each cell line was plated at optimal assay density in 95 μl of propagation media in 96 well plates and incubated overnight. The next day, a standard alamar blue assay was performed (see below) on representative wells of each cell line for a Tz calculation. Subsequently, cells were treated in duplicate with a 5 μl volume of either vehicle only, positive controls etoposide and taxol, or test compounds at 20 μM (highest soluble compound concentration). The treated cells were incubated for 72 h and then assayed for growth by alamar blue assay. Briefly, 10 μl of reagent was added to each well and the plates returned to 37° C. After 3 h, fluorescence at 544ex/590em was measured using a SpectraMax M5 (Molecular Devices) plate reader. Growth is represented as a percentage of the control cells that were treated with vehicle only and % growth inhibition was determined using the NCI algorithm: Tz=number of untreated cells at zero time, C=Number of control cells at 72 h time, and T=number of compound treated cells at 72 h time; 100*([T−Tz]/[C−Tz]).

The subject of test [2] is human colorectal HT-29 tumor cell line. The settings on record: HT29, 20 μM, 72 h. Here is the method:
as §1, §2

Test [3] relates to human lung A549 tumor cell line. The conditions noted are these: A549, 20 μM, 72 h. The protocol: as §1, §2
Test [4] deals with human osteosarcoma U2OS tumor cell line. The settings on record: 72 h. The protocol:
as §1, §2

The test system of test [5] is human ovarian SKOV3 tumor cell line. The conditions noted are these: SKOV3, 20 μM, 72 h. Here is the method:
as §1, §2

The test system of test [6] is human pancreatic AsPC1 tumor cell line. The settings on record: AsPC1, 20 μM, 72 h. The protocol:
as §1, §2

Test [7] deals with human prostate PC3 tumor cell line. The conditions noted are these: PC3, 20 μM, 72 h. Here is the method:
as §1, §2

Turning to `CC(=O)Nc1ccc2nc(-c3cccs3)c(-c3cccs3)nc2c1` [5c], the “% Growth inhibition at 20 μM” value in test [1], in test [2], in test [3], in test [4], in test [5] and in test [6] was “Inactive” each time. In addition, in test [7], the “% Growth inhibition at 20 μM” value is given as “Inactive”.
For the compound `CC(=O)Nc1ccc2nc(-c3ccccc3)c(-c3ccccc3)nc2c1` [5d], the “% Growth inhibition at 20 μM” value in test [1], in test [2], in test [3], in test [4], in test [5] and in test [6] was “Inactive” throughout. In test [7], the “% Growth inhibition at 20 μM” value is on record as “Inactive”.
Consider `Cc1nc2ccc(NC(=O)Nc3ccccc3)cc2nc1C` [5e], for which the “% Growth inhibition at 20 μM” value in test [1], in test [2], in test [3], in test [4], in test [5] and in test [6] was “Inactive” throughout. The “% Growth inhibition at 20 μM” value in test [7] is listed as “Inactive”.
Consider `O=C(Nc1ccccc1)Nc1ccc2nc(-c3cccs3)c(-c3cccs3)nc2c1` [5g], for which the “% Growth inhibition at 20 μM” value in test [1], in test [2], in test [3], in test [4], in test [5] and in test [6] was “Inactive” each time. Also, the “% Growth inhibition at 20 μM” value in test [7] is listed as “Inactive”.
In the case of `O=C(Nc1ccccc1)Nc1ccc2nc(-c3ccccc3)c(-c3ccccc3)nc2c1` [5h], the “% Growth inhibition at 20 μM” value in test [1], in test [2], in test [3], in test [4], in test [5] and in test [6] was “Inactive” throughout. In addition, in test [7], the “% Growth inhibition at 20 μM” value is recorded as “Inactive”.
With `Cc1ccc(S(=O)(=O)N(c2ccc3nc(-c4ccco4)c(-c4ccco4)nc3c2)S(=O)(=O)c2ccc(C)cc2)cc1` [5j], the “% Growth inhibition at 20 μM” value in test [1], in test [2], in test [3], in test [4], in test [5] and in test [6] was “Inactive” in each case. Besides, the “% Growth inhibition at 20 μM” value in test [7] is given as “Inactive”.
`Cc1ccc(S(=O)(=O)N(c2ccc3nc(-c4cccs4)c(-c4cccs4)nc3c2)S(=O)(=O)c2ccc(C)cc2)cc1` [5k]: the “% Growth inhibition at 20 μM” value in test [1], in test [2], in test [3], in test [4], in test [5] and in test [6] was “Inactive” throughout. Further, the “% Growth inhibition at 20 μM” value in test [7] is given as “Inactive”.
As for `Cc1ccc(S(=O)(=O)Nc2ccc3nc(-c4ccccc4)c(-c4ccccc4)nc3c2)cc1` [5l], the “% Growth inhibition at 20 μM” value in test [1], in test [2], in test [3], in test [4], in test [5] and in test [6] was “Inactive” throughout. The “% Growth inhibition at 20 μM” value in test [7] is recorded as “Inactive”.
Take `S=C(Nc1ccccc1)Nc1ccc2nc(-c3cccs3)c(-c3cccs3)nc2c1` [6b]: the “% Growth inhibition at 20 μM” value in test [1], in test [2], in test [3], in test [4], in test [5] and in test [6] was “Inactive” in each case. In addition, the “% Growth inhibition at 20 μM” value in test [7] is “Inactive”.
Regarding `S=C(Nc1ccccc1)Nc1ccc2nc(-c3ccccc3)c(-c3ccccc3)nc2c1` [6c], the “% Growth inhibition at 20 μM” value in test [1], in test [2], in test [3], in test [4], in test [5] and in test [6] was “Inactive” each time. The “% Growth inhibition at 20 μM” value in test [7] is reported as “Inactive”.
On to `O=[N+]([O-])c1ccc(NC(=S)Nc2ccc3nc(-c4cccs4)c(-c4cccs4)nc3c2)cc1` [6e], for which the “% Growth inhibition at 20 μM” value is given as 53.3 ± 7.2% in test [1]; 23.9 ± 27.8% in test [2]; “Inactive” in test [3]; 50.6 ± 3.9% in test [4]; “Inactive” in test [5]; “Inactive” in test [6]. In test [7], the “% Growth inhibition at 20 μM” value worked out at 19.5 ± 37.4%.
With `O=[N+]([O-])c1ccc(NC(=S)Nc2ccc3nc(-c4ccccc4)c(-c4ccccc4)nc3c2)cc1` [6f], the “% Growth inhibition at 20 μM” value in test [1] is given as 72.6 ± 0.7%; in test [2], 81.2 ± 0.7%; in test [3] it was 16.6 ± 11.2%; in test [4], 76.1 ± 0.4%; in test [5], 55.8 ± 30.7%; in test [6], 55.5 ± 25.4%. Also, the “% Growth inhibition at 20 μM” value in test [7] came out at 81.0 ± 8.5%.
`Cc1nc2ccc(NC(=O)N3CCCC3)cc2nc1C` [6g]: the “% Growth inhibition at 20 μM” value in test [1], in test [2], in test [3], in test [4], in test [5] and in test [6] was “Inactive” each time. Moreover, the “% Growth inhibition at 20 μM” value in test [7] was “Inactive”.
Consider `O=C(Nc1ccc2nc(-c3ccccc3)c(-c3ccccc3)nc2c1)N1CCCC1` [6i], for which the “% Growth inhibition at 20 μM” value is on record as 16.7 ± 3.9% in test [1]; “Inactive” in test [2]; 11.0 ± 1.3% in test [3]; 54.2 ± 2.2% in test [4]; 18.5 ± 4.3% in test [5]; 29.4 ± 9.8% in test [6]. Moreover, the “% Growth inhibition at 20 μM” value in test [7] came to 56.9 ± 2.7%.
On to `Cc1nc2ccc(NC(=O)N3CCC(Cc4ccccc4)CC3)cc2nc1C` [6j], for which the “% Growth inhibition at 20 μM” value in test [1] is given as 12.4 ± 5.0%; in test [2] it was 16.3 ± 10.1%; in test [3], 40.3 ± 1.9%; in test [4], 33.5 ± 0.4%; in test [5] it was 8.9 ± 5.1%; in test [6], “Inactive”. Also, in test [7], the “% Growth inhibition at 20 μM” value was 30.6 ± 11.6%.
Regarding `Cc1nc2ccc(NC(=O)N3CCCCC3)cc2nc1C` [6l], the “% Growth inhibition at 20 μM” value in test [1], in test [2], in test [3], in test [4], in test [5] and in test [6] was “Inactive” each time. In addition, the “% Growth inhibition at 20 μM” value in test [7] is recorded as “Inactive”.
As to `O=C(Nc1ccc(F)cc1)Nc1ccc2nc(-c3ccco3)c(-c3ccco3)nc2c1` [7a], the “% Growth inhibition at 20 μM” value was 38.4 ± 2.7% in test [1]; 74.2 ± 5.2% in test [2]; above 100% in test [3]; 55.6 ± 6.6% in test [4]; “Inactive” in test [5]; above 100% in test [6]. Moreover, the “% Growth inhibition at 20 μM” value in test [7] came to 90.7 ± 4.1%.
As for `O=C(Nc1ccc(Cl)cc1)Nc1ccc2nc(-c3ccco3)c(-c3ccco3)nc2c1` [7b], the “% Growth inhibition at 20 μM” value in test [1] is recorded as 92.5 ± 6.6%; in test [2], 86.3 ± 7.7%; in test [3] it was 99.2 ± 5.2%; in test [4] it was 87.4 ± 1.1%; in test [5], 55.8 ± 24.1%; in test [6] it was 81.1 ± 2.0%. Moreover, the “% Growth inhibition at 20 μM” value in test [7] is 86.4 ± 1.1%.
